In patent US20100209345A1, “Fluorinated Ligands for Targeting Peripheral Benzodiazepine Receptors” (Australian Nuclear Science & Technology Organisation, priority 2006, published 2010):

Tests used:
[1] = target: central benzodiazepine receptors; assay: In vitro binding, [3H]-Flumazenil, brain cortex membrane preparation; conditions: [3H]-Flumazenil (2 nM), 25° C., 45 min, read-out: CBR IC50
Procedure, shortened: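 Brain cortex membranes bound with [3H]-flumazenil; non-specific binding defined by 20 μM flumazenil. Filtration on GF/B, washes in ice-cold 50 mM Tris/HCl pH 7.4, bound counts by scintillation, IC50 derived from displacement.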

[2] = target: T1, peripheral benzodiazepine binding site (Rattus norvegicus, UniProt P16257); assay: In vitro binding, [3H]-PK11195, kidney membrane preparation; conditions: PBR IC50 (nM), [3H]-PK11195 (2 nM), 4° C., 1 h
T1 construct: diluted kidney membrane preparation (200 μg); from tissue; host or cells: kidney membrane preparation
Protocol: Non-specific binding was determined with PK11195 (10 μM).
Non-specific binding was determined with Flumazenil (20 μM). In both cases, incubations were terminated by rapid filtration through Whatman GF/B glass fibre. Filters were immediately washed 3 times with 5 mL ice-cold 50 mM Tris/HCl at pH 7.4. Filters were counted in a β-scintillation counter (Packard) to measure the amount of bound radioactivity. The IC50 of the compounds for the peripheral benzodiazepine binding site and the central benzodiazepine receptor were calculated using Kell 6 software.

With `CCN(CC)C(=O)Cc1c(-c2ccc(OCCF)cc2)nc2ccc(Cl)cn12` [PBR102, 2-(2-(4-(2-fluoroethoxy)phenyl)-6-chloroimidazo[1,2-a]pyridin-3-yl)-N,N-diethylacetamide] the IC50 [1] was 1560 nM, the chromatographic logP (LogP HPLC) was 2.7 ± 0.09 and the IC50 [2] was 13.2 nM.

With `CCN(CC)C(=O)Cc1c(-c2ccc(OCCCF)cc2)nc2ccc(Cl)cn12` [PBR111, 2-(2-(4-(3-fluoropropoxy)phenyl)-6-chloroimidazo[1,2-a]pyridin-3-yl)-N,N-diethylacetamide] the IC50 [1] was 1590 nM, the chromatographic logP (LogP HPLC) was 3.2 ± 0.1 and the IC50 [2] was 7.5 nM.
